Results reported in US8952024B2, “Herbicidal pyrimidone derivatives” (E I du Pont de Nemours and Company, priority 2009, dated 2015).

Legend:
Assay in all cases: Test C plant response
Format in all cases: in vivo
Settings in all cases: Postemergence, scale 0 to 100
[1] = test system: Italian ryegrass (Lolium multiflorum)
How it was run: (§1)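 Visual response scores run from 0 (no effect) to 100 (complete control), assigned 14 days after treatment by comparison with untreated plants. Compounds were applied in a surfactant-containing non-phytotoxic solvent mixture.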

[2] = test system: Russian thistle (Salsola iberica)
How it was run: as §1

[3] = test system: blackgrass (Alopecurus myosuroides)
How it was run: as §1

[4] = test system: bluegrass (annual bluegrass, Poa annua)
How it was run: as §1

[5] = test system: bromegrass (downy bromegrass, Bromus tectorum)
How it was run: as §1

[6] = test system: canarygrass (Phalaris minor)
How it was run: as §1

[7] = test system: deadnettle (henbit deadnettle, Lamium amplexicaule)
How it was run: as §1

[8] = test system: field violet (Viola arvensis)
How it was run: as §1

[9] = test system: galium (catchweed bedstraw, Galium aparine)
How it was run: as §1

[10] = test system: green foxtail (Setaria viridis)
How it was run: as §1

[11] = test system: kochia (Kochia scoparia)
How it was run: as §1

[12] = test system: lambsquarters (Chenopodium album)
How it was run: as §1

[13] = test system: oilseed rape (Brassica napus)
How it was run: as §1

[14] = test system: pigweed (Amaranthus retroflexus)
How it was run: as §1

[15] = test system: spring barley (Hordeum vulgare)
How it was run: as §1

[16] = test system: spring wheat (Triticum aestivum)
How it was run: as §1

[17] = test system: wild mustard (Sinapis arvensis)
How it was run: as §1

[18] = test system: wild oat (Avena fatua)
How it was run: as §1

[19] = test system: wild radish (Raphanus raphanistrum)
How it was run: as §1

[20] = test system: winter wheat (Triticum aestivum)
How it was run: as §1

Cc1cc(C)cc(-n2c(-c3ccccc3)ncc(C(=O)C3=C(O)CCCC3=O)c2=O)c1 [Compound 33]
Plant response rating: Ryegrass, Italian ([1]; 31 g ai/ha): 0 | Plant response rating: Ryegrass, Italian ([1]; 16 g ai/ha): 0 | Plant response rating: Ryegrass, Italian ([1]; 62 g ai/ha): 10 | Plant response rating: Ryegrass, Italian ([1]; 125 g ai/ha): 10 | Plant response rating: Russian Thistle ([2]; 31 g ai/ha): 80 | Plant response rating: Russian Thistle ([2]; 16 g ai/ha): 80 | Plant response rating: Russian Thistle ([2]; 62 g ai/ha): 90 | Plant response rating: Russian Thistle ([2]; 125 g ai/ha): 90 | Plant response rating: Blackgrass ([3]; 31 g ai/ha): 5 | Plant response rating: Blackgrass ([3]; 16 g ai/ha): 0 | Plant response rating: Blackgrass ([3]; 62 g ai/ha): 35 | Plant response rating: Blackgrass ([3]; 125 g ai/ha): 35 | Plant response rating: Bluegrass ([4]; 31 g ai/ha): 0 | Plant response rating: Bluegrass ([4]; 16 g ai/ha): 0 | Plant response rating: Bluegrass ([4]; 62 g ai/ha): 15 | Plant response rating: Bluegrass ([4]; 125 g ai/ha): 40 | Plant response rating: Bromegrass, Downy ([5]; 31 g ai/ha): 10 | Plant response rating: Bromegrass, Downy ([5]; 16 g ai/ha): 0 | Plant response rating: Bromegrass, Downy ([5]; 62 g ai/ha): 15 | Plant response rating: Bromegrass, Downy ([5]; 125 g ai/ha): 20 | Plant response rating: Canarygrass ([6]; 31 g ai/ha): 0 | Plant response rating: Canarygrass ([6]; 16 g ai/ha): 0 | Plant response rating: Canarygrass ([6]; 62 g ai/ha): 5 | Plant response rating: Canarygrass ([6]; 125 g ai/ha): 5 | Plant response rating: Deadnettle ([7]; 31 g ai/ha): 98 | Plant response rating: Deadnettle ([7]; 16 g ai/ha): 95 | Plant response rating: Deadnettle ([7]; 62 g ai/ha): 98 | Plant response rating: Deadnettle ([7]; 125 g ai/ha): 100 | Plant response rating: Field Violet ([8]; 31 g ai/ha): 90 | Plant response rating: Field Violet ([8]; 16 g ai/ha): 65 | Plant response rating: Field Violet ([8]; 62 g ai/ha): 95 | Plant response rating: Field Violet ([8]; 125 g ai/ha): 95 | Plant response rating: Galium ([9]; 31 g ai/ha): 40 | Plant response rating: Galium ([9]; 16 g ai/ha): 35 | Plant response rating: Galium ([9]; 62 g ai/ha): 50 | Plant response rating: Galium ([9]; 125 g ai/ha): 60 | Plant response rating: Foxtail, Green ([10]; 31 g ai/ha): 95 | Plant response rating: Foxtail, Green ([10]; 16 g ai/ha): 80 | Plant response rating: Foxtail, Green ([10]; 62 g ai/ha): 95 | Plant response rating: Foxtail, Green ([10]; 125 g ai/ha): 95 | Plant response rating: Kochia ([11]; 31 g ai/ha): 50 | Plant response rating: Kochia ([11]; 16 g ai/ha): 35 | Plant response rating: Kochia ([11]; 62 g ai/ha): 60 | Plant response rating: Kochia ([11]; 125 g ai/ha): 70 | Plant response rating: Lambsquarters ([12]; 31 g ai/ha): 98 | Plant response rating: Lambsquarters ([12]; 16 g ai/ha): 98 | Plant response rating: Lambsquarters ([12]; 62 g ai/ha): 100 | Plant response rating: Lambsquarters ([12]; 125 g ai/ha): 100 | Plant response rating: Oilseed Rape ([13]; 31 g ai/ha): 98 | Plant response rating: Oilseed Rape ([13]; 16 g ai/ha): 90 | Plant response rating: Oilseed Rape ([13]; 62 g ai/ha): 100 | Plant response rating: Oilseed Rape ([13]; 125 g ai/ha): 100 | Plant response rating: Pigweed ([14]; 31 g ai/ha): 95 | Plant response rating: Pigweed ([14]; 16 g ai/ha): 75 | Plant response rating: Pigweed ([14]; 62 g ai/ha): 95 | Plant response rating: Pigweed ([14]; 125 g ai/ha): 98 | Plant response rating: Barley, Spring ([15]; 31 g ai/ha): 0 | Plant response rating: Barley, Spring ([15]; 16 g ai/ha): 0 | Plant response rating: Barley, Spring ([15]; 62 g ai/ha): 0 | Plant response rating: Barley, Spring ([15]; 125 g ai/ha): 0 | Plant response rating: Wheat, Spring ([16]; 31 g ai/ha): 10 | Plant response rating: Wheat, Spring ([16]; 16 g ai/ha): 10 | Plant response rating: Wheat, Spring ([16]; 62 g ai/ha): 10 | Plant response rating: Wheat, Spring ([16]; 125 g ai/ha): 10 | Plant response rating: Mustard, Wild ([17]; 31 g ai/ha): 98 | Plant response rating: Mustard, Wild ([17]; 16 g ai/ha): 98 | Plant response rating: Mustard, Wild ([17]; 62 g ai/ha): 98 | Plant response rating: Mustard, Wild ([17]; 125 g ai/ha): 100 | Plant response rating: Oat, Wild ([18]; 31 g ai/ha): 0 | Plant response rating: Oat, Wild ([18]; 16 g ai/ha): 0 | Plant response rating: Oat, Wild ([18]; 62 g ai/ha): 5 | Plant response rating: Oat, Wild ([18]; 125 g ai/ha): 10 | Plant response rating: Radish, Wild ([19]; 31 g ai/ha): 95 | Plant response rating: Radish, Wild ([19]; 16 g ai/ha): 90 | Plant response rating: Radish, Wild ([19]; 62 g ai/ha): 95 | Plant response rating: Radish, Wild ([19]; 125 g ai/ha): 98 | Plant response rating: Wheat, Winter ([20]; 31 g ai/ha): 0 | Plant response rating: Wheat, Winter ([20]; 16 g ai/ha): 0 | Plant response rating: Wheat, Winter ([20]; 62 g ai/ha): 5 | Plant response rating: Wheat, Winter ([20]; 125 g ai/ha): 5

3-cyclohexyl-5-[(2-hydroxy-6-oxo-1-cyclohexen-1-yl)carbonyl]-2-phenyl-4(3H)-pyrimidinone [Compound 128]
Plant response rating: Ryegrass, Italian ([1]; 31 g ai/ha): 5 | Plant response rating: Ryegrass, Italian ([1]; 16 g ai/ha): 0 | Plant response rating: Ryegrass, Italian ([1]; 62 g ai/ha): 30 | Plant response rating: Ryegrass, Italian ([1]; 125 g ai/ha): 30 | Plant response rating: Russian Thistle ([2]; 31 g ai/ha): 80 | Plant response rating: Russian Thistle ([2]; 16 g ai/ha): 80 | Plant response rating: Russian Thistle ([2]; 62 g ai/ha): 95 | Plant response rating: Russian Thistle ([2]; 125 g ai/ha): 95 | Plant response rating: Blackgrass ([3]; 31 g ai/ha): 20 | Plant response rating: Blackgrass ([3]; 16 g ai/ha): 20 | Plant response rating: Blackgrass ([3]; 62 g ai/ha): 35 | Plant response rating: Blackgrass ([3]; 125 g ai/ha): 35 | Plant response rating: Bluegrass ([4]; 31 g ai/ha): 35 | Plant response rating: Bluegrass ([4]; 62 g ai/ha): 65 | Plant response rating: Bluegrass ([4]; 125 g ai/ha): 80 | Plant response rating: Bromegrass, Downy ([5]; 31 g ai/ha): 50 | Plant response rating: Bromegrass, Downy ([5]; 16 g ai/ha): 30 | Plant response rating: Bromegrass, Downy ([5]; 62 g ai/ha): 65 | Plant response rating: Bromegrass, Downy ([5]; 125 g ai/ha): 65 | Plant response rating: Canarygrass ([6]; 31 g ai/ha): 5 | Plant response rating: Canarygrass ([6]; 16 g ai/ha): 5 | Plant response rating: Canarygrass ([6]; 62 g ai/ha): 10 | Plant response rating: Canarygrass ([6]; 125 g ai/ha): 10 | Plant response rating: Deadnettle ([7]; 31 g ai/ha): 98 | Plant response rating: Deadnettle ([7]; 16 g ai/ha): 95 | Plant response rating: Deadnettle ([7]; 62 g ai/ha): 100 | Plant response rating: Deadnettle ([7]; 125 g ai/ha): 100 | Plant response rating: Field Violet ([8]; 31 g ai/ha): 0 | Plant response rating: Field Violet ([8]; 16 g ai/ha): 0 | Plant response rating: Field Violet ([8]; 62 g ai/ha): 35 | Plant response rating: Field Violet ([8]; 125 g ai/ha): 35 | Plant response rating: Galium ([9]; 31 g ai/ha): 30 | Plant response rating: Galium ([9]; 16 g ai/ha): 20 | Plant response rating: Galium ([9]; 62 g ai/ha): 65 | Plant response rating: Galium ([9]; 125 g ai/ha): 65 | Plant response rating: Foxtail, Green ([10]; 31 g ai/ha): 95 | Plant response rating: Foxtail, Green ([10]; 16 g ai/ha): 95 | Plant response rating: Foxtail, Green ([10]; 62 g ai/ha): 95 | Plant response rating: Foxtail, Green ([10]; 125 g ai/ha): 95 | Plant response rating: Kochia ([11]; 31 g ai/ha): 90 | Plant response rating: Kochia ([11]; 16 g ai/ha): 70 | Plant response rating: Kochia ([11]; 62 g ai/ha): 95 | Plant response rating: Kochia ([11]; 125 g ai/ha): 98 | Plant response rating: Lambsquarters ([12]; 31 g ai/ha): 98 | Plant response rating: Lambsquarters ([12]; 16 g ai/ha): 98 | Plant response rating: Lambsquarters ([12]; 62 g ai/ha): 98 | Plant response rating: Lambsquarters ([12]; 125 g ai/ha): 100 | Plant response rating: Oilseed Rape ([13]; 31 g ai/ha): 95 | Plant response rating: Oilseed Rape ([13]; 16 g ai/ha): 90 | Plant response rating: Oilseed Rape ([13]; 62 g ai/ha): 98 | Plant response rating: Oilseed Rape ([13]; 125 g ai/ha): 100 | Plant response rating: Pigweed ([14]; 31 g ai/ha): 95 | Plant response rating: Pigweed ([14]; 16 g ai/ha): 75 | Plant response rating: Pigweed ([14]; 62 g ai/ha): 95 | Plant response rating: Pigweed ([14]; 125 g ai/ha): 98 | Plant response rating: Barley, Spring ([15]; 31 g ai/ha): 15 | Plant response rating: Barley, Spring ([15]; 16 g ai/ha): 0 | Plant response rating: Barley, Spring ([15]; 62 g ai/ha): 20 | Plant response rating: Barley, Spring ([15]; 125 g ai/ha): 30 | Plant response rating: Wheat, Spring ([16]; 31 g ai/ha): 20 | Plant response rating: Wheat, Spring ([16]; 16 g ai/ha): 5 | Plant response rating: Wheat, Spring ([16]; 62 g ai/ha): 35 | Plant response rating: Wheat, Spring ([16]; 125 g ai/ha): 40 | Plant response rating: Mustard, Wild ([17]; 31 g ai/ha): 98 | Plant response rating: Mustard, Wild ([17]; 16 g ai/ha): 98 | Plant response rating: Mustard, Wild ([17]; 62 g ai/ha): 98 | Plant response rating: Mustard, Wild ([17]; 125 g ai/ha): 100 | Plant response rating: Oat, Wild ([18]; 31 g ai/ha): 25 | Plant response rating: Oat, Wild ([18]; 62 g ai/ha): 50 | Plant response rating: Oat, Wild ([18]; 125 g ai/ha): 70 | Plant response rating: Radish, Wild ([19]; 31 g ai/ha): 95 | Plant response rating: Radish, Wild ([19]; 16 g ai/ha): 95 | Plant response rating: Radish, Wild ([19]; 62 g ai/ha): 95 | Plant response rating: Radish, Wild ([19]; 125 g ai/ha): 95 | Plant response rating: Wheat, Winter ([20]; 31 g ai/ha): 30 | Plant response rating: Wheat, Winter ([20]; 16 g ai/ha): 0 | Plant response rating: Wheat, Winter ([20]; 62 g ai/ha): 30 | Plant response rating: Wheat, Winter ([20]; 125 g ai/ha): 35
